According to patent US8232278B2 (Gilead Sciences, Inc., priority 2005, dated 2012):

What was measured:
HCV replicon = assay: Anti-HCV assay / replicon assay (EC50, luciferase read-out); assay type: cell-based, hepatitis C virus (HCV)
How it was run: (§1)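 Huh-7 cells carrying an HCV replicon, 6000 per well, were exposed to 3-fold serial compound dilutions (0.5% DMSO final where DMSO was used) for 3 days at 37 °C. EC50 was read by luciferase after cell lysis; CC50 was taken as 50% inhibition of cell growth.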

[1] = CC50 assay in Huh-7 HCV replicon cells (CellTiter-Glo); assay type: cell-based, human; settings: human, 50% cytostatic concentration
How it was run: as §1

[2] = test system: wild-type HIV-1 strain IIIB; assay: HIV-1 assay (XTT, HIV-induced cytopathic effect in MT-2 cells); assay type: cell-based; settings: Human immunodeficiency virus 1, MT2, 120 h; 5 μM; MT-2 cells infected with HIV-1 IIIB, 5 days, XTT; read-out: MT2 HIV % inhib. @ 5 μM
Method: This assay is based on the quantification of the HIV-induced cytopathic effect by a calorimetric detection of the viability of virus-infected cells in the presence or absence of tested inhibitors. The HIV-induced cell death was determined by using as a metabolic substrate 2,3-bis(2-methoxy-4-nitro-5-sulfophenyl)-2H-tetrazolium-5-carboxanilide (hereinafter referred as XTT) which was converted only by live cells into a product with specific absorption characteristics, as described by Weislow et al., J. Natl. Cancer Inst. (1989) 81:577.
The assay protocol for the determination of EC50 includes the following steps: • 1. MT-2 cells were maintained in RPMI-1640 medium supplemented with 10% fetal bovine serum, glutamine and antibiotics. • 2. Cells were infected by the wild-type HIV-1 strain IIIB (ABI, Columbia, Md.) for 3 hours at 37° C. using a multiplicity of infection (MOI) of 0.01. • 3. Prepare a set of solutions containing various concentrations of the tested inhibitor by making 5-fold serial dilutions in 96-well plate (100 μl/well). Alternatively, test single drug concentration (100 μl/well). Distribute the infected cells into the 96-well plate containing the inhibitors (20,000 cells in 100 μl/well). Include the following control samples, untreated infected cells (100% cell death) and control drug-treated infected cells (full protection). • 4. Incubate the cells for 5 days at 37° C. • 5. Prepare XTT solution (6 mL per assay plate) at a concentration of 2 mg/mL in a phosphate-buffered saline at pH 7.4. Heat the solution in water-bath for 10 minutes at 56° C. Add 50 μl of N-methylphenazonium methasulfate (5 μg/mL) per 6 mL of XTT solution. • 6. Remove 100 μl media from each well on the assay plate. • 7. Add 100 μl of the XTT substrate solution per well and incubate at 37° C. for 45 to 60 minutes in a CO2 incubator. • 8. Add 20 μl of 2% Triton X-100 per well to inactivate the virus. • 9. Read the absorbance at 450 nm with subtracting off the background absorbance at 650 nm. • 10. Plot the percentage absorbance relative to untreated control and estimate the EC50 value as drug concentration resulting in a 50% protection of the infected cells. Alternatively, calculate the percentage of inhibition for a fixed concentration, relative to the full protection with the control drug.
This assay has been performed on a set of compounds of the invention, and results are reported in table 8 below, also indicating the nature of substituents being present in positions 4 and 6 of the pyrido[3,2-d]pyrimidine derivatives of the invention (all being amino-substituted in position 2).

SMILES: CCOCCOc1nc(N)nc2ccc(-c3ccc(F)cc3)nc12 [Example 304, 2-amino-4-(2-ethoxyethoxy)-6-(4-fluorophenyl)-pyrido[3,2-d]pyrimidine]
- CC50/EC50 (HCV replicon; CC50/EC50 ratio (selectivity index)): 852
- EC50 (HCV replicon; Hepatitis C virus, 72 h, human hepatoma Huh-7 cell line harbouring a HCV replicon, 3 days, luciferase luminescence, read-out: EC50): 0.044 µM
- CC50 at 3 days [1]: 37.5 µM
- inhibition at 5 µM [2]: 9%
- melting point: 192 °C
